Source: patent US12365696B2, “Small-molecule focal adhesion kinase (FAK) inhibitors” (DANA-FARBER CANCER INSTITUTE, INC., priority 2019, dated 2025)
Like-named read-outs stand apart in the source and are kept apart here.

How the values were obtained:
Test in all cases: KINOMEscan
Type in all cases: binding
ADCK3 = ADCK3 (Homo sapiens (Human), UniProt Q8NI60); conditions: ADCK3, 10000 nM; read-out: Percent Control
ALK(C1156Y) = ALK(C1156Y) (Homo sapiens (Human), UniProt Q9UM73, C1156Y); conditions: 10000 nM, read-out: Percent Control
BMPR1B = BMPR1B (Homo sapiens (Human), UniProt O00238); conditions: 10000 nM, read-out: Percent Control
CAMKK1 = CAMKK1 (Homo sapiens (Human), UniProt Q8N5S9); conditions: CAMKK1, 10000 nM; read-out: Percent Control
CDKL5 = CDKL5 (Homo sapiens (Human), UniProt O76039); conditions: CDKL5, 10000 nM; read-out: Percent Control
CSK = CSK (Homo sapiens (Human), UniProt P41240); conditions: 10000 nM, read-out: Percent Control
CSNK1D = CSNK1D (Homo sapiens (Human), UniProt P48730); conditions: 10000 nM, read-out: Percent Control
DYRK2 = DYRK2 (Homo sapiens (Human), UniProt Q92630); conditions: DYRK2, 10000 nM; read-out: Percent Control
EGFR(L861Q) = EGFR(L861Q) (Homo sapiens (Human), UniProt P00533, L861Q); conditions: 10000 nM, read-out: Percent Control
EPHA6 = EPHA6 (Homo sapiens (Human), UniProt Q9UF33); conditions: EPHA6, 10000 nM; read-out: Percent Control
EPHB1 = EPHB1 (Homo sapiens (Human), UniProt P54762); conditions: EPHB1, 10000 nM; read-out: Percent Control
EPHB3 = EPHB3 (Homo sapiens (Human), UniProt P54753); conditions: EPHB3, 10000 nM; read-out: Percent Control
ERK2 = ERK2 (Homo sapiens (Human), UniProt P28482); conditions: ERK2, 10000 nM; read-out: Percent Control
HASPIN = HASPIN (Homo sapiens (Human), UniProt Q8TF76); conditions: 10000 nM, read-out: Percent Control
JNK3 = JNK3 (Homo sapiens (Human), UniProt P53779); conditions: JNK3, 10000 nM; read-out: Percent Control
LZK = LZK (Homo sapiens (Human), UniProt O43283); conditions: 10000 nM, read-out: Percent Control
MET = MET (Homo sapiens (Human), UniProt P08581); conditions: 10000 nM, read-out: Percent Control
MLK3 = MLK3 (Homo sapiens (Human), UniProt Q16584); conditions: MLK3, 10000 nM; read-out: Percent Control
MYO3B = MYO3B (Homo sapiens (Human), UniProt Q8WXR4); conditions: 10000 nM, read-out: Percent Control
NEK7 = NEK7 (Homo sapiens (Human), UniProt Q8TDX7); conditions: NEK7, 10000 nM; read-out: Percent Control
p38-alpha = p38-alpha (Homo sapiens (Human), UniProt Q16539); conditions: 10000 nM, read-out: Percent Control
PIP5K2B = PIP5K2B (Homo sapiens (Human), UniProt P78356); conditions: 10000 nM, read-out: Percent Control
PKMYT1 = PKMYT1 (Homo sapiens (Human), UniProt Q99640); conditions: PKMYT1, 10000 nM; read-out: Percent Control
PRKCQ = PRKCQ (Homo sapiens (Human), UniProt Q04759); conditions: 10000 nM, read-out: Percent Control
PRKD3 = PRKD3 (Homo sapiens (Human), UniProt O94806); conditions: PRKD3, 10000 nM; read-out: Percent Control
PRKG2 = PRKG2 (Homo sapiens (Human), UniProt Q13237); conditions: PRKG2, 10000 nM; read-out: Percent Control
RET(M918T) = RET(M918T) (Homo sapiens (Human), UniProt P07949, M918T); conditions: 10000 nM, read-out: Percent Control
RIOK1 = RIOK1 (Homo sapiens (Human), UniProt Q9BRS2); conditions: RIOK1, 10000 nM; read-out: Percent Control
[1] = molecular target: (Homo sapiens (Human), UniProt P57078); conditions: read-out: Percent Control
[2] = molecular target: RPS6KA4(Kin.Dom.2-C-terminal) (Homo sapiens (Human), UniProt O75676); conditions: 10000 nM, read-out: Percent Control
[3] = molecular target: RPS6KA5(Kin.Dom.1-N-terminal) (Homo sapiens (Human), UniProt O75582); conditions: 10000 nM, read-out: Percent Control
SRMS = SRMS (Homo sapiens (Human), UniProt Q9H3Y6); conditions: 10000 nM, read-out: Percent Control
TAOK3 = TAOK3 (Homo sapiens (Human), UniProt Q9H2K8); conditions: TAOK3, 10000 nM; read-out: Percent Control
WNK1 = WNK1 (Homo sapiens (Human), UniProt Q9H4A3); conditions: WNK1, 10000 nM; read-out: Percent Control
ZAP70 = ZAP70 (Homo sapiens (Human), UniProt P43403); conditions: ZAP70, 10000 nM; read-out: Percent Control

WNK1, sequence (Q9H4A3 whole entry): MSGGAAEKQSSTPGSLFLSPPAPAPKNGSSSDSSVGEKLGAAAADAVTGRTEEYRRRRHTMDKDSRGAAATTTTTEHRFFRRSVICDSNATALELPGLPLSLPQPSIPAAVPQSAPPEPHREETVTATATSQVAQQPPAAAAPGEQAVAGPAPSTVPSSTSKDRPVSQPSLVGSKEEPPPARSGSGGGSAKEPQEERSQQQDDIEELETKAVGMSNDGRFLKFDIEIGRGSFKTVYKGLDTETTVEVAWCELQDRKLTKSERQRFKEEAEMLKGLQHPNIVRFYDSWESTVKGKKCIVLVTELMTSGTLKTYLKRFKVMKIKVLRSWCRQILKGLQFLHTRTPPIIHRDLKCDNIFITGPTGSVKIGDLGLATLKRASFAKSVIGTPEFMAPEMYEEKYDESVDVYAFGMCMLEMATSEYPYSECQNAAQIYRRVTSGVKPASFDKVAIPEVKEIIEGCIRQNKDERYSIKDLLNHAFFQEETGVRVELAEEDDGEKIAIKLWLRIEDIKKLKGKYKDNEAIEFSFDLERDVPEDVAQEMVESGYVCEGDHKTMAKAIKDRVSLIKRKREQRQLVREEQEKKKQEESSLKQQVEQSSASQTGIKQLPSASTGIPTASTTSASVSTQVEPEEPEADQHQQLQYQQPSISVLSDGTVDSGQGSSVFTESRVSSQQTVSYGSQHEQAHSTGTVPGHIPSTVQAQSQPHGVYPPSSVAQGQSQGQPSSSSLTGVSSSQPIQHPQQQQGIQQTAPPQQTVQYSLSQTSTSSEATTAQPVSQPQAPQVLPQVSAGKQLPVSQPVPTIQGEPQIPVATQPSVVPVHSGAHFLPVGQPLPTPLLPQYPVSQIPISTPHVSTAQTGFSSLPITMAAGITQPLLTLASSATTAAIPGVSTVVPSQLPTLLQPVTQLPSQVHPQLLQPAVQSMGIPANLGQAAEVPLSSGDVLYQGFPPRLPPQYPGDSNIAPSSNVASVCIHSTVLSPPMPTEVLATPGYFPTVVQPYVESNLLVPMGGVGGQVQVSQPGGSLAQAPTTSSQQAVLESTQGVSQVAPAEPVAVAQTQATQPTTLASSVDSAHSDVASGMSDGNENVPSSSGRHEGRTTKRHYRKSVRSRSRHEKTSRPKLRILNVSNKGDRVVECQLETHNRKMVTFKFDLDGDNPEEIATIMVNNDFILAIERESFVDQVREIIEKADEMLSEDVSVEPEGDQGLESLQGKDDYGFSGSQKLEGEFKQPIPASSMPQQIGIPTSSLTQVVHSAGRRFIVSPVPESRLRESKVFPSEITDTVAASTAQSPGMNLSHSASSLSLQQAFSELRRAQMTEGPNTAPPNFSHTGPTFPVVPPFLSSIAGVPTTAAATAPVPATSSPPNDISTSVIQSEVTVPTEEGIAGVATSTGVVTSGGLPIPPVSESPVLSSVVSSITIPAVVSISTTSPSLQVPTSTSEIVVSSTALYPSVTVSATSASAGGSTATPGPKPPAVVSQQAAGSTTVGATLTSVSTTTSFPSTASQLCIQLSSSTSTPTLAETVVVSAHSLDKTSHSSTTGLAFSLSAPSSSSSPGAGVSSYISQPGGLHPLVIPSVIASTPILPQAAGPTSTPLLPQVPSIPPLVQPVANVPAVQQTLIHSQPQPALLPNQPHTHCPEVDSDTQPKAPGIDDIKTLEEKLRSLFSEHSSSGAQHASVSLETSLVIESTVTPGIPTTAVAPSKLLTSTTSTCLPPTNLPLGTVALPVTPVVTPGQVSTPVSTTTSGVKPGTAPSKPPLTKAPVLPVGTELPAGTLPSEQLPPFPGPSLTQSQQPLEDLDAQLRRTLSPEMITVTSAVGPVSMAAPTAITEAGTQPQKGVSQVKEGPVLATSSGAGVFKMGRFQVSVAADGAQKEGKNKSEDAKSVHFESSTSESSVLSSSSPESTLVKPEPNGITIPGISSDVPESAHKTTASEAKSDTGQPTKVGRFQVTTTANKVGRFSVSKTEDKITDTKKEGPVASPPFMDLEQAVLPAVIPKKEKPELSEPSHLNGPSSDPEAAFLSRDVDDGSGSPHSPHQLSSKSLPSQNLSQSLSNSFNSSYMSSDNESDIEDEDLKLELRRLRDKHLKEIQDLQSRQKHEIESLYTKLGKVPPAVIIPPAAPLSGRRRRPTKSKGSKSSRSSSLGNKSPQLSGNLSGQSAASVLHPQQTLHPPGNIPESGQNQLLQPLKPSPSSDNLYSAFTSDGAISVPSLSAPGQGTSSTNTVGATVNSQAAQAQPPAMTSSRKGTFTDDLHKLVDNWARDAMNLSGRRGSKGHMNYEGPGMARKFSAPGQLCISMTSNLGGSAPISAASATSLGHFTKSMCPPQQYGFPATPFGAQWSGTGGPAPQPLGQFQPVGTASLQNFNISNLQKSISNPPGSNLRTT
CSK, sequence (P41240 whole entry): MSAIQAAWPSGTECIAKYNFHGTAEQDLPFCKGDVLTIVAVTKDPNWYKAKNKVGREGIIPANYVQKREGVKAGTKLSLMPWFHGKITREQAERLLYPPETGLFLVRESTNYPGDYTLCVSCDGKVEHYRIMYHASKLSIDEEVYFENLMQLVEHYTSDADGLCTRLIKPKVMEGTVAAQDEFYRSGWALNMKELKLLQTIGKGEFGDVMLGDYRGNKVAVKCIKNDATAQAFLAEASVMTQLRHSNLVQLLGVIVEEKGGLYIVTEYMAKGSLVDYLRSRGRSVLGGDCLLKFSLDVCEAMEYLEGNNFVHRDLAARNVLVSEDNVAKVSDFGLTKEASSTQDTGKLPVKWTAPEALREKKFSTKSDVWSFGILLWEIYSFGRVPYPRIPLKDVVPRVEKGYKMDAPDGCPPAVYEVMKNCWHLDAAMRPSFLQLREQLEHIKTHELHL
TAOK3, sequence (Q9H2K8 whole entry): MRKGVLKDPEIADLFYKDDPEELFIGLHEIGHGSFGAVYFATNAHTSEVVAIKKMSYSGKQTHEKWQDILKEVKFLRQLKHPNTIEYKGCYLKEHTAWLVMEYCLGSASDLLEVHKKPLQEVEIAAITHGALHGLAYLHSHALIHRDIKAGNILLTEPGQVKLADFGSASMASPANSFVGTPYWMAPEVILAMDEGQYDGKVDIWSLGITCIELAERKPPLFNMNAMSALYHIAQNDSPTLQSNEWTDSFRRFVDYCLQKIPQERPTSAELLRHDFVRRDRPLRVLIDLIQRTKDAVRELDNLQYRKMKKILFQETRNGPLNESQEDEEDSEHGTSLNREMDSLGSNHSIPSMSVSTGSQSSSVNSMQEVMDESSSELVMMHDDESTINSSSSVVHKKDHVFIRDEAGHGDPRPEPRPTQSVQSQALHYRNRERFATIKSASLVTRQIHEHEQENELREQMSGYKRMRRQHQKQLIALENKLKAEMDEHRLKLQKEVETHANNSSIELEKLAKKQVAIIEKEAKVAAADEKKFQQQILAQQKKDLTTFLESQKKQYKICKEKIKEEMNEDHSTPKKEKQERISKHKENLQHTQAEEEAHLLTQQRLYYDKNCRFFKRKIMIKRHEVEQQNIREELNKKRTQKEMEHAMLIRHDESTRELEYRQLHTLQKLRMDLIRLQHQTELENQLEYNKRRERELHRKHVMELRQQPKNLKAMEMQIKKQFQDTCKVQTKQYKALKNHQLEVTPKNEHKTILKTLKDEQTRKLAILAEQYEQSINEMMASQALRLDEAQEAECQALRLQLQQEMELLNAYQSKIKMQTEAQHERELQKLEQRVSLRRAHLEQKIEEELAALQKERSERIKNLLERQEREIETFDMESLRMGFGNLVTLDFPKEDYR
DYRK2, sequence (Q92630 whole entry): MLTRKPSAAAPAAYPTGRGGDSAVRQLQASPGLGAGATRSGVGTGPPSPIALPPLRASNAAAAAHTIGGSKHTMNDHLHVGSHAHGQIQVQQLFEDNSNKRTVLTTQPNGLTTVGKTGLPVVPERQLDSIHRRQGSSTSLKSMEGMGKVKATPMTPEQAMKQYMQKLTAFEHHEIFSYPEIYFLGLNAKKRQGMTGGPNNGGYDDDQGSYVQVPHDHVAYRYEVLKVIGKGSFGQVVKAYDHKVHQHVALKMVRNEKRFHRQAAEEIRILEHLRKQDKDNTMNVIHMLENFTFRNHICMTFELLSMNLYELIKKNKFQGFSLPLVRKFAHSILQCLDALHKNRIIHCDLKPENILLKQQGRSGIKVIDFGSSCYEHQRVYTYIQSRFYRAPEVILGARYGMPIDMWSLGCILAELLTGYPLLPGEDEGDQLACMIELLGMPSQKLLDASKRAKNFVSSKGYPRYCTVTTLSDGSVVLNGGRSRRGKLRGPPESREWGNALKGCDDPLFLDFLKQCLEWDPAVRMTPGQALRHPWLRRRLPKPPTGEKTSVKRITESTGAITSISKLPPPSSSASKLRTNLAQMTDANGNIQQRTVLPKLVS
RIOK1, sequence (Q9BRS2 whole entry): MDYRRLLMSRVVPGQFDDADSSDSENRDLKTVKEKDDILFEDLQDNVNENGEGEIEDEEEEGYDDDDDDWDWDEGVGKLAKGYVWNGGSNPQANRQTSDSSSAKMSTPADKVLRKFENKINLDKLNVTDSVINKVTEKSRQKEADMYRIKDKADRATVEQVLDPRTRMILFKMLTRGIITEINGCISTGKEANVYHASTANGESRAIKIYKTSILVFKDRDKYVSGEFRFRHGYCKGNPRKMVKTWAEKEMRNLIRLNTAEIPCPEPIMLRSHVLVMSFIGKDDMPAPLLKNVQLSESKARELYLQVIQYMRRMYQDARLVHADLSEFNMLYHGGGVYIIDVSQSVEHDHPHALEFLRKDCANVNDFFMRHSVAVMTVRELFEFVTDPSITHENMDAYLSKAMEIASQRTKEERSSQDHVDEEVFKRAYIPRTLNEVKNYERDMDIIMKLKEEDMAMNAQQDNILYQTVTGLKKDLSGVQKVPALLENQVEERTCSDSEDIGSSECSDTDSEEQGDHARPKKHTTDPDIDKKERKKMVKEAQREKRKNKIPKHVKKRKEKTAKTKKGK

In the case of `COc1cc(N2CCC(N3CCN(C)CC3)CC2)ccc1Nc1ncc2c(n1)N(C)c1sc(C)nc1C(=O)N2` [Compound 3, 6-((2-methoxy-4-(4-(4-methylpiperazin-1-yl)piperidin-1-yl)phenyl)amino)-2,4-dimethyl-4,9-dihydro-10H-pyrimido[5,4-b]thiazolo[5,4-e][1,4]diazepin-10-one], the remaining binding at 10 µM (ADCK3) is reported as 54%, the remaining binding at 10 µM (ALK(C1156Y)) is reported as 100% and the remaining binding at 10 µM (BMPR1B) is reported as 88%. It also gave a remaining binding at 10 µM (CAMKK1) of 84%, a remaining binding at 10 µM (CDKL5) of 97% and a remaining binding at 10 µM (CSK) of 85%. The remaining binding at 10 µM (CSNK1D) was 54%, the remaining binding at 10 µM (DYRK2) was 100% and the remaining binding at 10 µM (EGFR(L861Q)) was 38%. For the same compound, the remaining binding at 10 µM (EPHA6) was 83%, the remaining binding at 10 µM (EPHB1) was 48% and the remaining binding at 10 µM (EPHB3) was 70%. For the same compound, the remaining binding at 10 µM (ERK2) was 60%, the remaining binding at 10 µM (HASPIN) was 96% and the remaining binding at 10 µM (JNK3) was 100%. It also gave a remaining binding at 10 µM (LZK) of 100%, a remaining binding at 10 µM (MET) of 92% and a remaining binding at 10 µM (MLK3) of 73%. The remaining binding at 10 µM (MYO3B) was 74%, the remaining binding at 10 µM (NEK7) was 63% and the remaining binding at 10 µM (p38-alpha) was 75%. It also gave a remaining binding at 10 µM (PIP5K2B) of 76%, a remaining binding at 10 µM (PKMYT1) of 90% and a remaining binding at 10 µM (PRKCQ) of 89%. The remaining binding at 10 µM (PRKD3) was 75%, the remaining binding at 10 µM (PRKG2) was 73% and the remaining binding at 10 µM (RET(M918T)) was 87%. For the same compound, the remaining binding at 10 µM (RIOK1) was 62%, the remaining binding at 10 µM ([1]; PIPK4, 10000 nM) was 100% and the remaining binding at 10 µM [2] was 100%. For the same compound, the remaining binding at 10 µM [3] was 70%, the remaining binding at 10 µM (SRMS) was 78% and the remaining binding at 10 µM (TAOK3) was 100%. It also gave a remaining binding at 10 µM (WNK1) of 100% and a remaining binding at 10 µM (ZAP70) of 100%.
With `COc1cc(N2CCC(N3CCN(C)CC3)CC2)ccc1Nc1ncc2c(n1)N(C)c1sc(C)nc1C(=O)N2C` [Compound 5, 6-((2-methoxy-4-(4-(4-methylpiperazin-1-yl)piperidin-1-yl)phenyl)amino)-2,4,9-trimethyl-4,9-dihydro-10H-pyrimido[5,4-b]thiazolo[5,4-e][1,4]diazepin-10-one] the remaining binding at 10 µM (ADCK3) was 88%, the remaining binding at 10 µM (ALK(C1156Y)) was 89% and the remaining binding at 10 µM (BMPR1B) was 94%. The remaining binding at 10 µM (CAMKK1) was 100%, the remaining binding at 10 µM (CDKL5) was 100% and the remaining binding at 10 µM (CSK) was 100%. For the same compound, the remaining binding at 10 µM (CSNK1D) was 87%, the remaining binding at 10 µM (DYRK2) was 100% and the remaining binding at 10 µM (EGFR(L861Q)) was 100%. For the same compound, the remaining binding at 10 µM (EPHA6) was 86%, the remaining binding at 10 µM (EPHB1) was 93% and the remaining binding at 10 µM (EPHB3) was 100%. It also gave a remaining binding at 10 µM (ERK2) of 98%, a remaining binding at 10 µM (HASPIN) of 89% and a remaining binding at 10 µM (JNK3) of 97%. The remaining binding at 10 µM (LZK) was 100%, the remaining binding at 10 µM (MET) was 97% and the remaining binding at 10 µM (MLK3) was 100%. It also gave a remaining binding at 10 µM (MYO3B) of 100%, a remaining binding at 10 µM (NEK7) of 100% and a remaining binding at 10 µM (p38-alpha) of 93%. For the same compound, the remaining binding at 10 µM (PIP5K2B) was 39%, the remaining binding at 10 µM (PKMYT1) was 95% and the remaining binding at 10 µM (PRKCQ) was 88%. The remaining binding at 10 µM (PRKD3) was 34%, the remaining binding at 10 µM (PRKG2) was 100% and the remaining binding at 10 µM (RET(M918T)) was 100%. For the same compound, the remaining binding at 10 µM (RIOK1) was 100%, the remaining binding at 10 µM ([1]; RIPK4, 10000 nM) was 100% and the remaining binding at 10 µM [2] was 30%. The remaining binding at 10 µM [3] was 91%, the remaining binding at 10 µM (SRMS) was 97% and the remaining binding at 10 µM (TAOK3) was 77%. It also gave a remaining binding at 10 µM (WNK1) of 89% and a remaining binding at 10 µM (ZAP70) of 100%.
